These are literature values, as cited in US20130225581A1, “NITROGEN-CONTAINING AROMATIC HETEROCYCLIC DERIVATIVE” (KYOWA HAKKO KIRIN CO., LTD, priority 2010, published 2013).

The series deals with human gastric cancer tumor models.

Take `COc1cc2nccc(Oc3ccc(NC(=O)NC4CC4)c(Cl)c3)c2cc1C(N)=O` [4-[3-chloro-4-(cyclopropylaminocarbonyl)aminophenoxy]-7-methoxy-6-quinolinecarboxamide]: the antitumor activities result is reported as “show antitumor activities”.
As for `COc1cc2c(Oc3ccc4[nH]c(C)cc4c3F)ncnc2cc1OCCCN1CCCC1` [AZD2171], the antitumor activities entry is reported as “show antitumor activities”.
